In US20040220268A1, “Compound that directly stimulates phospholipase C activity” (priority 2003, published 2004):

Legend:
PLC γ1 = molecular target: T1, PLC γ1 (Homo sapiens, UniProt P19174); test: Phosphoinositide hydrolysis in vitro; type: biochemical; settings: 25 μM; purified isozyme
T1 sequence (P19174 1-1290): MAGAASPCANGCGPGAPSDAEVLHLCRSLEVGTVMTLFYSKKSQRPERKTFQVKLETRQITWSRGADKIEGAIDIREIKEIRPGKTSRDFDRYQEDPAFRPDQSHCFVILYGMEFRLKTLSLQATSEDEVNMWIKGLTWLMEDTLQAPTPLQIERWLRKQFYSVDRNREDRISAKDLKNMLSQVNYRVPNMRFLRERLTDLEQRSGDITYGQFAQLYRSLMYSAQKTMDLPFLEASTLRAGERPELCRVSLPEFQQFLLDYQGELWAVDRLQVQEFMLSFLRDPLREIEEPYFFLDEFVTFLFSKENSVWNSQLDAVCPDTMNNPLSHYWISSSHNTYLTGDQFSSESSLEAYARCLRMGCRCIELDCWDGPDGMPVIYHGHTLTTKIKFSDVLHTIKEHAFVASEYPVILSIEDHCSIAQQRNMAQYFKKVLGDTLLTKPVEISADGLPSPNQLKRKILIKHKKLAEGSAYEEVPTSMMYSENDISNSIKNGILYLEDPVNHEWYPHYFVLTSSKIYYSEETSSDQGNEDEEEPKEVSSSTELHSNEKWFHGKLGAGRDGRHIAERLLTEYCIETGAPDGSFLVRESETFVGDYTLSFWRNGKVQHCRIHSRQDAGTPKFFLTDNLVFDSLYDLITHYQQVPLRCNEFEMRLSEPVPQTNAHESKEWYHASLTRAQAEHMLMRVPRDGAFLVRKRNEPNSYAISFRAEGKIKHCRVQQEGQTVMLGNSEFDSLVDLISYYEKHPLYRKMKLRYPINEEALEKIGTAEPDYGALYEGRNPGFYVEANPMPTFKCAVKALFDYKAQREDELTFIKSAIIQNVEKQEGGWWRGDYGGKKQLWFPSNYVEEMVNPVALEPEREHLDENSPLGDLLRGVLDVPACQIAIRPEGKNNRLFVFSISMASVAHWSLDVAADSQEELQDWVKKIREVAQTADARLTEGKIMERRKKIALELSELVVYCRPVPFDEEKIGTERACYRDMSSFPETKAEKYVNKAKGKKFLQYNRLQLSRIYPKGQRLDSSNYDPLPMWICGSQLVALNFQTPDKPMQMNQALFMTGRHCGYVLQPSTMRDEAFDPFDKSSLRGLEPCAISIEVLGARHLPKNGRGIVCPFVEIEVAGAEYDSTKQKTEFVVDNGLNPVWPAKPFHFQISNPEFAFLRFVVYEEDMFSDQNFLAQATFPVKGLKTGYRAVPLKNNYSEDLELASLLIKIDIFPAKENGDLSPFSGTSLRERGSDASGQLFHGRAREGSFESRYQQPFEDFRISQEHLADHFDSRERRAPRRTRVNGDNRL
Experimental: (§1) The hydrolyzing activity of PtdIns-4,5-P2 was measured on mixed phospholipid vesicles containing 120 μM phosphatidylethanolamine, 30 μM PtdIns-4,5-P2, and 1 μCi/ml [3H] PtdIns-4,5-P2. Purified PLC β2, substrates, and the chemicals (2.5, 5, 10, 20, and 25 μM of m-3M3FBS or of o-3M3FBS) were coincubated (A), 25 μM of m-3M3FBS or o-3M3FBS, and phospholipid substrates were mixed with purified PLC β3, γ1, 2, or δ1 (B). Reactions were performed for 10 min at 37° C. in a 200 μl reaction mixture containing lipid micelles (5 μM [^3H] PtdIns-4,5-P2, 20,000 cpm). Reactions were stopped by adding 1 ml of CHCl3:CH3OH:HCl (50:50:0.3, v/v/v). Inositol trisphosphates were extracted with 0.5 ml of 1 M HCl/5 mM EGTA, and the radioactivity in the upper aqueous phase was measured. Data are presented as means ±S. E. M. of three independent experiments (A, B).
(§2) PLC activity was assayed using [^3H] PtdIns-4,5-P2 as a substrate (Min et al., 1993). PtdIns-4,5-P2-hydrolyzing activity was measured with mixed phospholipid micelles containing 120 μM phosphatidylethanolamine, 30 μM PtdIns-4,5-P2, and 1 μCi/ml [^3H] PtdIns-4,5-P2. The lipids, in chloroform, were dried under a stream of nitrogen gas, suspended in assay buffer (20 mM HEPES pH 7.0, 120 mM NaCl, 2 mM MgCl2, 40 or 100 μM CaCl2, and 1 mg/ml bovine albumin serum (Bayer, Leverkusen, Germany)), and sonicated. All proteins added to the reaction mixture were dialyzed overnight against the assay buffer. Incubation was performed for 10 min at 37° C. in a 200 μl reaction mixture containing lipid micelles (5 μM [3H] PtdIns-4,5-P2, 20,000 cpm). The reaction was stopped by adding 2 ml of CHCl3: CH3OH: HCl (50: 50: 0.3, v/v/v). The inositol triphosphates were extracted with 0.5 ml of 1 N HCl, and radioactivities in the upper aqueous phase were measured.

PLC β2 = PLC β2 (Homo sapiens, UniProt Q00722); test: Phosphoinositide hydrolysis in vitro; type: biochemical
Experimental: as §1, §2

U937 cells = test: Formation of inositol phosphates in cells (in vivo PLC activity); type: cell-based, human
Experimental: U937 Cells were labeled with myo-[^3H] inositol (1 μCi/10^6 cells) for 24 h at 37° C. and then treated with various concentrations of m-3M3FBS or o-3M3FBS. Total inositol phosphates were eluted with a solution containing 1 M ammonium formate and 0.1 M formic acid. Radioactivity of the [3H] inositol phosphates was determined by counting in a scintillation counter. Data are presented as means ±S. E. M. of five independent experiments.
Cells grown in culture were harvested by centrifugation, washed with inositol-free RPMI 1640 medium, and resuspended at a density of 2×10^6 cells/ml in the same medium. The cells were then labeled with myo-[^3H] inositol (1 μCi/10^6 cells) for 24 h at 37° C. and rinsed twice with inositol-free RPMI 1640 medium containing 0.5% fetal bovine serum, 20 mM of Hepes at pH 7.2, 20 mM of LiCl, and bovine serum albumin (1 mg/ml) and then resuspended at a density of 2×10^7 cells/ml. A portion (0.1 ml) of the cell suspension was transferred to a microcentrifuge tube and incubated at 37° C. for 15 min. PIP2 hydrolysis was initiated by adding chemicals or solvents for the indicated times. Reactions were terminated by adding 200 μl of ice-cold 10% perchloric acid (HClO4). […] The radioactivity of the [3H] inositol phosphates was determined using a scintillation counter (Tri-Packard, Meriden, Conn.).

Sequence of PLC β2 (Q00722 whole entry, species assumed): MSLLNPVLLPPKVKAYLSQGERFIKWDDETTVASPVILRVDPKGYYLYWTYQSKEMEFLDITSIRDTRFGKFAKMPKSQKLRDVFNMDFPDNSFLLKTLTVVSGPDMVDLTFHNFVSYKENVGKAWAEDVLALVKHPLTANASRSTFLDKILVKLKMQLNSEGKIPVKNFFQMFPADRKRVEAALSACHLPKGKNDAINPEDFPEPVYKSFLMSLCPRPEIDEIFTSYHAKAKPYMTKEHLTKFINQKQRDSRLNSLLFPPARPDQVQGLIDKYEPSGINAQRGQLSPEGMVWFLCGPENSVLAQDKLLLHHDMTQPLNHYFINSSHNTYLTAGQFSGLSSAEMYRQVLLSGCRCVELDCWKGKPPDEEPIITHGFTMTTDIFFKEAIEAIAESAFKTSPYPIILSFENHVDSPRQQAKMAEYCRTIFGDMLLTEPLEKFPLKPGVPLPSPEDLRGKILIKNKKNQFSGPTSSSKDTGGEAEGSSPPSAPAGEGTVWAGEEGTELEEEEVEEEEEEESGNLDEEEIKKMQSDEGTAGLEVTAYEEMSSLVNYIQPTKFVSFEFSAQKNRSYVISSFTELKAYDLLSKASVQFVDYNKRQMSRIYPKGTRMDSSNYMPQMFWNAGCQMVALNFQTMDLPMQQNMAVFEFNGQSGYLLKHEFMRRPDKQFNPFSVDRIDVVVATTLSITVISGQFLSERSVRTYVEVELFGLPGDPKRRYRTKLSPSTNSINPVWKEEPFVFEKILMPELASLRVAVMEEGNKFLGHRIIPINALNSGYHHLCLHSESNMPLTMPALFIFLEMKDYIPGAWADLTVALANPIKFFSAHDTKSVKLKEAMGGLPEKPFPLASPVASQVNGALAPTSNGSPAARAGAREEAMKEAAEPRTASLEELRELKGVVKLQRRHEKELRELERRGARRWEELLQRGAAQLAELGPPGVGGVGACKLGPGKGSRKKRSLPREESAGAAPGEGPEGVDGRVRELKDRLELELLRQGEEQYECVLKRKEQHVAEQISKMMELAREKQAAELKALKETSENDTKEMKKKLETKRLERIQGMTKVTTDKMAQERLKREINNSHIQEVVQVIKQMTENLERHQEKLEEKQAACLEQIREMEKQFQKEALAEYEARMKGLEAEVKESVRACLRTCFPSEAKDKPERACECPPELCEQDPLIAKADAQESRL

Cc1cc(C)c(S(=O)(=O)Nc2cccc(C(F)(F)F)c2)c(C)c1 [m-3M3FBS, 2,4,6-Trimethyl-N-(meta 3-trifluoromethyl-phenyl)-benzenesulfonamide]
activity of PLC gamma1 (PLC γ1): augmented the activity | in vitro PLCβ2 activity (PLC β2; [3H] PtdIns as substrate, data not shown): significantly increased | concentration at which PIP2-hydrolyzing activity of PLC β2 was enhanced (PLC β2; [3H] PtdIns-4,5-P2 substrate): exceeding 10 μM | effect on PIP2-hydrolyzing activity of PLC β2 (PLC β2; low doses (ca., 2.5 and 5 μM), [3H] PtdIns-4,5-P2 substrate): no effect | fold increase of accumulation of inositol phosphates (U937 cells; 50 μM): 2.5 fold

Cc1cc(C)c(S(=O)(=O)Nc2ccccc2C(F)(F)F)c(C)c1 [o-3M3FBS, 2,4,6-Trimethyl-N-(ortho 3-trifluoromethyl-phenyl)-benzenesulfonamide, reference compound]
activity of PLC gamma1 (PLC γ1): did not affect | effect on PIP2-hydrolyzing activity of PLC β2 (PLC β2; at 10 μM or higher concentrations (up to 25 μM)): no effect | effect on PLC activity (inositol phosphate formation) (U937 cells): no effect
